Laboratory results reported in patent US20260191853A1, “METHOD OF TREATING DRUG-INDUCED BRADYARRHYTHMIA” (OSAKA UNIVERSITY, priority 2022, published 2026).
“Also recorded” adds a separate entry of the source.

Assays:
[1] = test system: genetically modified animal model; experiment: Sinus arrest and atrioventricular block in a genetically modified animal model; assay type: in vivo
Hartley guinea pigs = experiment: Effect on fingolimod-induced decrease in blood lymphocytes in guinea pig; assay type: in vivo; conditions: compound (I) 10 or 30 mg/kg oral gavage 30 min before fingolimod hydrochloride 0.1 mg/kg oral; 5 and 24 hours; FIG. 7
Experimental: Hartley guinea pigs (8 weeks old, male, available from Japan SLC, Inc.) were fasted for about 16 hours, and then a solvent or compound (I) (free form) was administered by oral gavage to each animal at a dose of 10 or 30 mg/kg (volume: 5 mL/kg). The solvent used was 0.5 w/v % methyl cellulose 400 solution (available from FUJIFILM Wako Pure Chemical Corporation). Thirty minutes after the administration, a solvent or fingolimod hydrochloride was administered by oral gavage to the animal at a dose of 0.1 mg/kg (volume: 5 mL/kg). The solvent used was saline (available from Otsuka Pharmaceutical Factory, Inc.). Blood was collected from the jugular vein, the subclavian vein, or the abdominal vena cava before administration of compound (I) and 5 and 24 hours after administration of fingolimod hydrochloride. Blood cell components were analyzed with a multi-item automatic blood cell counter (XN-1000, available from Sysmex Corporation). The plasma was collected by centrifuging the blood and cryopreserved at about −20° C. After thawing of the plasma, plasma drug concentrations were measured using LC/MS/MS after deproteinization with acetonitrile.
In FIG. 7, the measurements are shown as mean±standard error, and (I) denotes compound (I).

beagle dog = experiment: Therapeutic effect on verapamil-induced bradycardia in conscious beagle dog; assay type: in vivo; conditions: FIG. 10
Experimental: A peripheral venous path was secured with an 18 G needle in the right forelimb of a beagle dog (body weight: about 10 kg, female, available from Oriental Yeast Co., Ltd.), and then held on an operating table. Heart rate was monitored with an electrocardiographic monitor worn on the animal. A manchette was worn on the left forelimb, and blood pressure was measured with an Omron automatic electronic sphygmomanometer. The left ventricular function was measured by the M-mode method using the echocardiographic left parasternal short-axis two-chamber view. After stabilization of the heart rate, verapamil (intravenous injection of Vasolan, available from Eisai Co., Ltd.) was administered by continuous intravenous injection at a dose of 0.8 mg/kg/hour with a syringe pump. About 30 minutes after the initiation of administration, the dose was increased to 2.4 mg/kg/hour, and continuous infusion was continued. Since 2:1 atrioventricular block was continuously determined 17 minutes after an increase in the dose, the administration of verapamil was discontinued. Subsequently, saline and compound (I) dihydrochloride (0.01 mg/kg, 0.1 mg/kg, 1 mg/kg) were administered by bolus intravenous injection at 10-minute intervals. About 10 minutes after each administration, electrocardiogram, heart rate, blood pressure, and left ventricular function were measured and evaluated in a stable state. […]

KACh channel = molecular target: T1, KACh channel (Homo sapiens, UniProt P48544+P48549); experiment: KACh channel inhibitory action
T1 sequence (P48549 1-501): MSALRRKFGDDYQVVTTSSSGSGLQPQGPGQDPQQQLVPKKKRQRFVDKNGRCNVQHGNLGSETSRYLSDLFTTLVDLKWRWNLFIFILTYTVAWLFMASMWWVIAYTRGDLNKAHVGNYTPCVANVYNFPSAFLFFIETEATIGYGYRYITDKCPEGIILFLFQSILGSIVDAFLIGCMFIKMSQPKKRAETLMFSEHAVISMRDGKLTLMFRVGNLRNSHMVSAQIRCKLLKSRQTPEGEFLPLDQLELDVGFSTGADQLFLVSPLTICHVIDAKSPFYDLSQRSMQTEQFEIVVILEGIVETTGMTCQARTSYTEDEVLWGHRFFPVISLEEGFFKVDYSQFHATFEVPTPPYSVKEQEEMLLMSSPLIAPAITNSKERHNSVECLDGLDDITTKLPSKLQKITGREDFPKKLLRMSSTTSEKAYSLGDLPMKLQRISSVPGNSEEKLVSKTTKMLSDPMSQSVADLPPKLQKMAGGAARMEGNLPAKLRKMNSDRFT
T1 sequence (P48544 1-419): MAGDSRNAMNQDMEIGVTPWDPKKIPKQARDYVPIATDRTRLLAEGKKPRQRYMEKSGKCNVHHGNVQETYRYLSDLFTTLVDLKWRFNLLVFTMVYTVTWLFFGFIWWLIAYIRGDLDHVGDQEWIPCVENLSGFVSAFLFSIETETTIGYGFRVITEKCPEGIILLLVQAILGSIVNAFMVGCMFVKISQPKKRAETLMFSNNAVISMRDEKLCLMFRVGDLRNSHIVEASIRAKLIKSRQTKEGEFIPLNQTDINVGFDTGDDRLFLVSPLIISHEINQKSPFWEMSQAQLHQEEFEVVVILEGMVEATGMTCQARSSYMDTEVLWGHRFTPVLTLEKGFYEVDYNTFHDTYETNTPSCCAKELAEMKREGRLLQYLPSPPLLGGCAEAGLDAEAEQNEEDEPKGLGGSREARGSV

- KACh channel inhibitory action (KACh channel): has a KACh channel inhibitory action
Compound: Cc1cc(CO)nc2cc3c(cc12)OC(C)(C)[C@H](O)[C@H]3NCCc1ccccc1 [Compound (I), (3R,4S)-7-Hydroxymethyl-2,2,9-trimethyl-4-(phenethylamino)-3,4-dihydro-2H-pyrano[2,3-g]quinoline-3-ol]
- efficacy for sinus arrest and atrioventricular block [1]: effective
- effect on the peripheral blood lymphocyte decreasing action of fingolimod (Hartley guinea pigs): does not inhibit
- verapamil-induced bradyarrhythmia (2:1 atrioventricular block) (beagle dog; 0.1 mg/kg bolus i.v.): exhibited a termination effect
- verapamil-induced bradyarrhythmia (2:1 atrioventricular block) (beagle dog; compound (I) dihydrochloride 0.01, 0.1, 1 mg/kg bolus i.v. after verapamil infusion up to 2.4 mg/kg/hour): improved bradyarrhythmia; also recorded: recovery to 1:1 atrioventricular conduction
